Tested on: K24384-001-R-PDC complex spheroid growth
Assay: Anticancer human tumor K24384-001-R-PDC patient-derived pancreatic adenocarcinoma cell line growth inhibition [AhR]
Conditions: for IC50: curve of first compound; for viability, T/C: stronger effect = lower value
How it was run: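 Complex tumor spheroids co-cultured with HUVEC and human MSC stroma; AhR antagonists tested in combination with standard-of-care and investigational agents. Top concentration at or near clinical Cmax (else 10 microM), half-log dilutions; growth expressed as percent test/control.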
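Throughout, for viability, T/C: percent of DMSO vehicle-treated spheroid viability set as 100%.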

Compound: O=C(C=Cn1cnc(-c2cc(C(F)(F)F)cc(C(F)(F)F)c2)n1)NNc1cnccn1 + Cc1ccccc1N=Nc1ccc(NC(=O)c2ccnn2C)c(C)c1
- IC50 (second compound 0.1 µM): 0.238 µM
- IC50 (second compound 0.316 µM): 0.144 µM
- IC50 (second compound 1 µM): 0.158 µM
- IC50 (second compound 3.16 µM): 0.149 µM
- IC50 (second compound 10 µM): 0.132 µM
- viability, T/C (second compound 0.1 µM, first compound 0.00949 µM): 101%
- viability, T/C (second compound 0.1 µM, first compound 0.03 µM): 104%
- viability, T/C (second compound 0.1 µM, first compound 0.0949 µM): 68.2%
- viability, T/C (second compound 0.1 µM, first compound 0.3 µM): 47.9%
- viability, T/C (second compound 0.1 µM, first compound 0.949 µM): 27.1%
- viability, T/C (second compound 0.1 µM, first compound 3 µM): 22.9%
- viability, T/C (second compound 0.316 µM, first compound 0.00949 µM): 88%
- viability, T/C (second compound 0.316 µM, first compound 0.03 µM): 106%
- viability, T/C (second compound 0.316 µM, first compound 0.0949 µM): 62.3%
- viability, T/C (second compound 0.316 µM, first compound 0.3 µM): 32.6%
- viability, T/C (second compound 0.316 µM, first compound 0.949 µM): 30.2%
- viability, T/C (second compound 0.316 µM, first compound 3 µM): 22.1%
- viability, T/C (second compound 1 µM, first compound 0.00949 µM): 97.4%
- viability, T/C (second compound 1 µM, first compound 0.03 µM): 89%
- viability, T/C (second compound 1 µM, first compound 0.0949 µM): 62.3%
- viability, T/C (second compound 1 µM, first compound 0.3 µM): 34.2%
- viability, T/C (second compound 1 µM, first compound 0.949 µM): 26.5%
- viability, T/C (second compound 1 µM, first compound 3 µM): 23%
- viability, T/C (second compound 3.16 µM, first compound 0.00949 µM): 76.9%
- viability, T/C (second compound 3.16 µM, first compound 0.03 µM): 77.6%
- viability, T/C (second compound 3.16 µM, first compound 0.0949 µM): 59.3%
- viability, T/C (second compound 3.16 µM, first compound 0.3 µM): 34%
- viability, T/C (second compound 3.16 µM, first compound 0.949 µM): 27.9%
- viability, T/C (second compound 3.16 µM, first compound 3 µM): 19.7%
- viability, T/C (second compound 10 µM, first compound 0.00949 µM): 86.3%
- viability, T/C (second compound 10 µM, first compound 0.03 µM): 79.4%
- viability, T/C (second compound 10 µM, first compound 0.0949 µM): 57.5%
- viability, T/C (second compound 10 µM, first compound 0.3 µM): 31.4%
- viability, T/C (second compound 10 µM, first compound 0.949 µM): 32.9%
- viability, T/C (second compound 10 µM, first compound 3 µM): 25.8%

From PubChem BioAssay AID1919009 (Molecular Pharmacology Branch, DTP, NCI, 2023)
